Measurements: patent publication US7906491B2 (Univisitair Medisch Centrum Utrecht, priority 2002, dated 2011)

What was measured:
Ovcar3 cells = assay: Adhesion assay of Ovcar3 cells to fibronectin; format: cell-based
Method: (§1) A: 8-pCPT-2′-O-Me-cAMP stimulates cell adhesion. Upper panel: quantification of Ovcar3 cells adhering to fibronectin after treatment with increasing concentrations of 8-pCPT-2′-O-Me-cAMP. Lower panel: Ovcar3 cells were treated with increasing concentrations of 8-pCPT-2′-O-Me-cAMP for 15 min, cells were lysed and analyzed for activation of Rap1 (upper blot) and CREB (lower blot). Total Rap1 levels are shown (middle blot). B: 8-pCPT-2′-O-Me-cAMP increases the rate of cell adhesion. Upper panel: quantification of Ovcar3 cells adhering to fibronectin at various time points. Lower panel: cells were treated with 60 μM 8-pCPT-2′-O-Me-cAMP for the indicated times. Cell lysates were analyzed for activation of Rap1 (upper blot) and CREB (lower blot). Total levels of Rap1 in cell lysates are shown (middle blot). C: Ovcar3 cells were either pre-incubated at 37° C. for 30 min with the PKA inhibitor H-89 (10 μM) 30 min prior to seeding onto the wells (‘Short’) or H-89 was added 30 min prior to trypsinization and during the recovery period (‘Long’) and seeded onto wells in the absence or presence of 8-pCPT-2′-O-Me-cAMP (100 μM). Cells were allowed to adhere for 1 h. D, cAMP-induced adhesion to fibronectin is blocked by inhibitors of Rap1. Left panel: Ovcar3 cells were transiently transfected with either mock DNA, increasing concentrations of HA-Rap1GAP II (0.5, 1, 2 or 6 μg, respectively), HA-Rap1GAPI (6 μg) or HA-RBD of RalGDS (6 μg), respectively. Cells were treated with 8-Br-cAMP or 8-pCPT-2′-O-Me-cAMP and adhesion to fibronectin was determined. […]
In functional assays, 8-pCPT-2′-O-Me-cAMP appeared to induce integrin-mediated cell adhesion through Epac and Rap1. […] The cells were seeded onto fibronectin-coated plates in the presence or absence of 8-pCPT-2′-O-Me-cAMP and the amount of cells that adhered after a certain period of time was quantified. […]
24-well plates were coated overnight with 2 μg/ml fibronectin (Sigma, St. Louis, Mo., USA) in sodium bicarbonate buffer (Sigma, St. Louis, Mo., USA). […] Cells were centrifuged, counted and resuspended at 3×10^5 cells/ml in serum-free RPMI with 0.5% BSA. […]

CREB = CREB phosphorylation in Ovcar3 cells; format: cell-based; conditions: concentration of 200 μM
Method: as §1, with “Left panel: Ovcar3 cells were transiently transfected with either mock DNA, increasing concentrations of HA-Rap1GAP II (0.5, 1, 2 or 6 μg, respectively), HA-Rap1GAPI (6 μg) or HA-RBD of RalGDS (6 μg), respectively.” left out

Epac1-ΔDEP1 = target: T1, Epac1-ΔDEP1 (Homo sapiens, UniProt O95398); assay: In vitro GEF assay: Epac activity in the exchange reaction towards Rap (mantGDP-loaded Rap1b); format: biochemical; on Relative activity of Epac*: key: +++: activity comparible to I-007; ++: activity between I-007 and cAMP; +: activity comparible to cAMP; ±: activity less than cAMP
T1 sequence (O95398 191-923 limits assumed): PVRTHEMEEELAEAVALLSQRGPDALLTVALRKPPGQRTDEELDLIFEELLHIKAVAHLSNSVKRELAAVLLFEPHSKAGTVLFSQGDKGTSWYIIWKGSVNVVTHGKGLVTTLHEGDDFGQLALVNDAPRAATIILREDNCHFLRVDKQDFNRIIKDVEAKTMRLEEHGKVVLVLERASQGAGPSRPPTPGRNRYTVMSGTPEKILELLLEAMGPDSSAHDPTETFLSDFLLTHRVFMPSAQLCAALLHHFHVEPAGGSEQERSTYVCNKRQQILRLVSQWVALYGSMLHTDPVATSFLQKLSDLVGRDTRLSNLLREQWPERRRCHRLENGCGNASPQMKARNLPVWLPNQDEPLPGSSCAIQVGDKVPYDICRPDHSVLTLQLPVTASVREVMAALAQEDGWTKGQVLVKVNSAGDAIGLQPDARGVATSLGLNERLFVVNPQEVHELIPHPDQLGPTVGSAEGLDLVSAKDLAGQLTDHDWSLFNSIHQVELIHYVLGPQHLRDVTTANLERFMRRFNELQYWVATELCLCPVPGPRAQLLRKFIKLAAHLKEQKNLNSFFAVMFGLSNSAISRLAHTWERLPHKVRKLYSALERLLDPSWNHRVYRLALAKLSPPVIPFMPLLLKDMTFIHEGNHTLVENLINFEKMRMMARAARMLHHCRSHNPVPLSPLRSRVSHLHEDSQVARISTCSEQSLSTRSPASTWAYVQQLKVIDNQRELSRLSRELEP
Method: In vitro GEF assays were performed as described (3,16). […] Buffer conditions were 50 mM Tris pH7.4, 150 mM NaCl, 5% glycerol, 5 mM DTE, 60 μM GTP. Reactions were carried out in 96-well plates and measured in a Cary Eclipse from Varian Inc., using the manufacturers software.

PKAII = assay: Relative affinity for PKAII (cAMP = 1), in vitro; format: binding; conditions: relative to cAMP = 1

- EC50 (Ovcar3 cells; Homo sapiens, OVCAR-3, FIG. 7A, read-out: EC50 of enhanced cell adhesion to fibronectin): ~30 µM
- maximal activity of Epac1 compared to cAMP (Epac1-ΔDEP1; in vitro): three-fold higher
- Relative activity of Epac* (Epac1-ΔDEP1; in vitro in the exchange reaction towards Rap): +++
- EC50 (Epac1-ΔDEP1; in vitro, FIG. 4, read-out: Half-maximal activation of Epac1): 2200 nM
SMILES: CO[C@@H]1[C@@H]2OP(=O)(O)OC[C@H]2O[C@H]1n1c(Sc2ccc(Cl)cc2)nc2c(N)ncnc21 [Compound I-007, 8-(4-chloro-phenylthio)-2′-O-methyladenosine-3′,5′-cyclic monophosphate]
- time after which increased adhesion was already observed (Ovcar3 cells; fibronectin, time-course, FIG. 7B): 30 min
- CREB phosphorylation (CREB): did not induce CREB phosphorylation
- Relative affinity CAMP = 1 PKAII (PKAII): 0.003
